In patent publication US20220387370A1, “METHODS OF REDUCING NEUROLOGICAL DAMAGE IN WILSON DISEASE PATIENTS” (priority 2019, published 2022):
“Also recorded” adds a separate entry of the source.

What was measured:
HepG2 cells [1] = assay: Cu-albumin cell toxicity, CellTiter-Glo, HepG2; assay type: cell-based, human
Experimental: SHSY5Y (human neuroblastoma), U87MG (human astrocytoma), EA.hy926 (human endothelium) and HepG2 (human hepatocellular carcinoma) cells were from ATCC (Wesel, Germany) and were cultured in Dulbecco's Modified Eagle Medium (DMEM) supplemented with 10% FCS (Biochrom, Berlin, Germany) and 1% antibiotic-antimycotic (Life Technologies, Carlsbad, USA). All cells were maintained at 37° C. in a humidified atmosphere with 5% CO2.

EA.hy926 cells [2] = assay: Cellular copper content (ICP-OES), EA.hy926; assay type: cell-based, human
Excerpt: (§1) Afterwards, cells were trypsinized and counted.

HepG2 cells [3] = assay: Trypan blue-assessed cell viability under Cu-albumin, HepG2; assay type: cell-based, human; conditions: 750 μM copper, 250 μM albumin, 750 μM chelator
Excerpt: as §1

EA.hy926 cells [4] = assay: High-resolution respirometry, EA.hy926; assay type: cell-based, human; conditions: EA.hy926, Cu-albumin-treated, vs Cu-albumin alone
Experimental: (§2) Oxygen consumption was assessed by high-resolution respirometry (HRR) using the Oxygraph-2k and DatLab 7.0 (Oroboros Instruments GmbH, Innsbruck, Austria) as described previously (Pesta, D. and E. Gnaiger, Methods Mol Biol, 2012. 810: p. 25-58). Per chamber, 1.5-2×10^6 living cells were supplied in 2 mL of MiR05 buffer (0.5 mM EGTA, 3 mM MgCl2, 60 mM lactobionic acid, 20 mM taurine, 10 mM KH2PO4, 20 mM HEPES, 110 mM sucrose, 1 g/L albumin, pH 7.1) and routine respiration was measured. Addition of 2.5 μM oligomycin (inhibitor of the FOF1-ATPase) enabled the measurement of leak respiration and stepwise addition of CCCP (1 μL steps from 1 mM stock solution) allowed the determination of the maximum oxygen flux and thereby the capacity of the electron transport system (ETS). The oxygen flux was baseline-corrected for non-mitochondrial oxygen consuming processes (ROX) by the addition of 2.5 μM of the complex III-inhibitor antimycin A.

U87MG cells = assay: High-resolution respirometry, U87MG; assay type: cell-based, human; conditions: Cu-albumin-treated, vs Cu-albumin alone
Experimental: as §2

[5] = test system: primary porcine brain capillary endothelial cells (PBCECs); conditions: 750 μM copper and 250 μM albumin, 750 μM ALXN1840, 48 h
Excerpt: (§3) For transepithelial resistance (TEER) experiments (Srinivasan, B., et al., J Lab Autom, 2015. 20(2): p. 107-26), cryopreserved primary porcine brain capillary endothelial cells (PBCECs) were thawed and seeded either on rat tail collagen-coated 96-well plates for cytotoxicity testing using the Neutral red assay (Repetto, G., A. del Peso, and J. L. Zurita, Nat Protoc, 2008. 3(7): p. 1125-31) or Transwell® inserts (area: 1.12 cm^2, pore size: 0.4 μm: Corning, N.Y., USA) for barrier integrity studies. Cells were cultured for 48 hours in Earle's Medium 199 supplemented with 10% FCS, 50 U penicillin/mL, 50 μg/mL streptomycin, 100 μg/mL gentamycin and 0.7 mM I-glutamine and maintained at 37° C. in a humidified atmosphere with 5% CO2. […] TEER and capacitance values were continuously monitored over 48 h using a CellZscope device (nanoAnalytics, Münster, Germany). Only PBCEC monolayers with initial TEER values >600Ωcm^2 and capacitance values between 0.45 and 0.6 μF/cm^2 were used for permeability studies (Bornhorst, J., et al., J Biol Chem, 2012. 287(21): p. 17140-51). The barrier integrity was calculated by normalizing the TEER values to the respective start values.

PBCEC monolayers = assay: TEER and capacitance of PBCEC monolayers (endothelial blood-brain barrier model); assay type: cell-based, porcine
Excerpt: as §3

[6] = test system: tight junction protein claudin-5; assay: Immunocytochemistry staining of claudin-5 in PBCEC monolayers; assay type: cell-based, porcine; conditions: 250 μM copper and 83.3 μM albumin, 250 μM chelator
Experimental: (§4) Total copper was determined by ICP-MS/MS as previously described (Kopp, J. F., et al., J Trace Elem Med Biol, 2019. 54: p. 221-225). For the immunocytochemical staining of tight junction proteins, confluent PBCECs cultivated on Transwell® membrane inserts were processed as previously described ([…]., et al., Archives of Toxicology 2018. 92(2): p. 823-832). Briefly, PBCECs were fixed with formaldehyde and permeabilized using Triton X-100. After blocking of unspecific binding sites by albumin, the cells were incubated with the either anti-claudin 5 or anti-ZO-1 antibody (Zytomed Systems GmbH, Berlin, Germany). Following a second blocking step, the cells were treated with an Alexa Fluor® 488 conjugated secondary antibody (Invitrogen, Molecular Probes Inc., Eugene, USA). Hoechst 33258 (Merck, Darmstadt, Germany) was used to stain cell nuclei. Subsequently, membranes were cut out of the inserts and mounted in Aqua Poly/Mount (Polysciences Inc., Washington, USA). After a solidification period of 24 hours, the samples were evaluated using a DM6 B fluorescence microscope by Leica Microsystems CMS GmbH (Wetzlar, Germany) in combination with the Leica Application Suite X.

[7] = test system: Zonula occludens-1 (ZO-1); assay: Immunocytochemistry staining of Zonula occludens-1 in PBCEC monolayers; assay type: cell-based, porcine; conditions: 250 μM copper and 83.3 μM albumin, 250 μM chelator
Experimental: as §4

## C[N+](C)(C)CCO.C[N+](C)(C)CCO.[SH-].[SH-].[S]=[Mo]=[S] [ALXN1840, bis-choline tetrathiomolybdate]
HepG2 cells [1]; HepG2, 750 μM chelator
  CellTiterGlo-assessed cell viability / Cu-albumin toxicity: protected
HepG2 cells [1]; HepG2, low dose of chelator (250 μM)
  CellTiterGlo-assessed cell viability / Cu-albumin toxicity: partially rescued
EA.hy926 cells [2]; EA.hy926, 750 μM copper, 250 μM albumin, 750 μM chelator, vs Cu-albumin alone
  cellular copper content: significantly decreased the copper content; also recorded: (significantly) lower copper content
EA.hy926 cells [2]; EA.hy926 cells subjected to respirometry (FIG. 6A), non-toxic Cu-albumin setting
  cellular copper content: significantly lower
HepG2 cells [3]
  Trypan blue-assessed cell viability / copper-related cell toxicity: rescued HepG2 cells
EA.hy926 cells [4]
  mitochondrial respiration (ETS): significantly increased
  respiratory control ratio E/L (ETS to leak respiration): significantly increased
U87MG cells
  respiratory control ratio E/L (ETS to leak respiration): tendentiously; also recorded: less pronounced
[5]
  cell viability (neutral red): could be rescued
PBCEC monolayers; 250 μM copper and 83.3 μM albumin, 250 μM chelator, 48 h
  transepithelial electrical resistance (TEER): stable TEER values for 48 h; also recorded: could be rescued
PBCEC monolayers; Cu-albumin treatment in the absence or presence of chelator
  capacitance values: unaffected
[6]
  claudin-5 staining pattern / copper-induced gap formation: continuous and uninterrupted; also recorded: less pronounced
[7]
  ZO-1 distribution (uneven, diffuse staining upon Cu-albumin): could be fully protected; also recorded: prevented
